Like-named read-outs stand apart in the source and are kept apart here. Peptide text beside a SMILES is read from it.
Columns and labels:
[1] = molecular target: MAb 11 × 2 (IgG3) anti-D peptide
[2] = system: IgG antibodies of sera of patients suffering from DLE and SS; assay type: binding, human
Method: FIG. 6: ELISA reactivity of serum samples originating from patients suffering from DLE and SS with the parent peptide and the analogue RIb 277–291 of Ro52. The sera of the patients are diluted to 1:1,000. Only the antibody activity of the sub-class IgG is measured. The median values of the optical density are indicated. The broken line represents the upper limit of the normal population corresponding to the mean value of the optical density of 20 normal human sera+2 SD (standard deviation) (0.30 OD units).
Sera of female F1 lupous mice (NZB/W) were obtained from S. Batsford (Freibourg, Germany). The human sera originate from patients suffering from disseminated lupus erythematosus (DLE) and Sjögren's syndrome (SS). They were obtained from D. A. Isenberg (London), O. Meyer (Paris) and G. Fournié (Toulouse). The sera of healthy volunteers were obtained from J. L. Pasquali (Strasbourg).
The sera of lupous mice were tested by ELISA as described previously (Benkirane, N., Friede, M., Guichard, G., briand, J. P., Van Regenmortel, M. H. V. and Muller, S. (1993) Antigenicity and immunogenicity of modified synthetic peptides containing D-amino acid residues. J. Biol. Chem., 268: 26279–26285). Only the antibodies of isotype IgG were tested. […] Clin. Exp. Immunol., 95: 397–407) except in the case of the peptide Ro52 277–291, where sensitization of the ELISA plates was carried out at 4° C. instead of 37° C. (see the reasons above). The threshold value for positivity of each test, including that of tests based on the use of retro-inverso peptide analogues, was determined using 20 sera of healthy individuals. The antigenic activity of the peptides is also measured by ELISA using a liquid phase inhibition test.
The 30 sera (positive or negative with respect to the L peptide) were tested in parallel with the RIa and RIb analogues. It was shown that all the sera positive with the L peptide were also positive with the retro-inverso peptides. […] The mean optical density corresponding to the arithmetic mean of all the optical density values, including the values below the threshold line of positivity, is 0.21 (standard deviation 0.25) and 0.51 (standard deviation 0.62) with the L and RIb peptides respectively.

[3] = molecular target: MAb 4 × 8 (IgG1) anti-L peptide
in vitro = settings: pH 7.4
MAb 11 × 7 [4] = assay type: binding, mouse
MAb 11 × 7 [5] = assay type: binding, mouse; remark: listed apart in the source
MAb 11 × 2 = assay type: binding, mouse
[6] = molecular target: MAb 4 × 11 (IgG1) anti-L peptide
[7] = system: IgG antibodies of sera of patients suffering from DLE and SS; assay type: binding, human; remark: listed apart in the source
[8] = molecular target: MAb 4 × 10 (IgG1) anti-L peptide
MAb 4 × 11 = assay type: binding, mouse
BALB/c mice = settings: mouse, in vivo

In the case of CC[C@H](C)[C@H](NC(=O)CNC(=O)CNC(=O)[C@@H](N)CS)C(=O)N[C@@H](CCCNC(=N)N)C(=O)NCC(=O)N[C@@H](CCC(=O)O)C(=O)N[C@@H](CCCNC(=N)N)C(=O)N[C@@H](C)C(=O)O [L peptide, [H Cys-Gly-Gly]-Ile-Arg-Gly-Glu-Arg-Ala-OH] (H-CGGIRGERA-OH), the “BIAcore (Ka M^−1) affinity constant at equilibrium” value [1] is reported as 2e+06 M⁻¹, the “Ka (affinity constant at equilibrium)” value [1] is reported as 2e+06 M⁻¹ and the “ka (association constant)” value [1] is reported as 2 ± 0.3. For the same molecule, the “kd (dissociation constant)” value [1] was 100 ± 0.2, the “sera of patients tested in which anti-peptide 277–291 antibodies are detected” value ([2]; 30 sera of DLE and SS patients) was 17% and the “number of sera containing antibodies of the subclass IgG which react with the peptide” value ([2]; among 30 sera of DLE and SS patients, threshold 0.30 OD units, plates sensitized at 4° C.) was 5. For the same molecule, the mean optical density ([2]; arithmetic mean of all 30 sera, peptide 277–291 of Ro52) was 0.21, the “Ka (affinity constant at equilibrium)” value [3] was 8e+07 M⁻¹ and the “ka (association constant)” value [3] was 13 ± 0.2. The “kd (dissociation constant)” value [3] was 15 ± 0.2, the half-life (in vitro) was 7 min and the “Molar excesses of inhibitor peptide required to inhibit 50% of the bonding between the MAb and D peptide” value (MAb 11 × 7 [4]) was “—* (key: —: cross-reactivity not detectable (up to 250 μg/ml of competition peptide))”. For the same molecule, the “bonding of MAb 11×2 to the L peptide in the presence of a non-digested peptide” value (trypsin) was 220 RU, the “time to complete loss of immunological activity on digestion with immobilized trypsin” value (trypsin; pH 7.4) was 10 min and the “ELISA (OD) reactivity with the peptides” value (MAb 11 × 7 [5]) was 0.47 OD. For the same molecule, the “ELISA (OD) reactivity with the peptides” value (MAb 11 × 2) was 2.75 OD, the “BIAcore (Ka M^−1) affinity constant at equilibrium” value [6] was 3e+06 M⁻¹ and the “Ka (affinity constant at equilibrium)” value [6] was 3e+06 M⁻¹. The “ka (association constant)” value [6] was 3 ± 0.2, the “kd (dissociation constant)” value [6] was 100 ± 0.3 and the mean optical density [7] was 0.21. The “number of sera which reacted” value [7] was “Six”, the “percentage of sera which reacted” value [7] was 30% and the “Ka (affinity constant at equilibrium)” value [8] was 4,486 ×10^6 M^−1. For the same molecule, the “ka (association constant)” value [8] was 987 ± 0.7, the “kd (dissociation constant)” value [8] was 22 ± 0.2 and the “ELISA (OD) reactivity with the peptides” value (MAb 4 × 11) was 1.29 OD. For the same molecule, the “antibody subclasses of the response” value (BALB/c mice) was “the antibodies belong to the IgG1, 2a and 2b subclasses”.

— US7122193B1 (priority 1994, dated 2006)
